One data set has as its target T1, PamNTT1 (Candidatus Protochlamydia amoebophila, UniProt Q70GF7).
T1 construct: gene ntt1; full-length, N-terminal His tag (pET16b)
T1 sequence (Q70GF7 1-513): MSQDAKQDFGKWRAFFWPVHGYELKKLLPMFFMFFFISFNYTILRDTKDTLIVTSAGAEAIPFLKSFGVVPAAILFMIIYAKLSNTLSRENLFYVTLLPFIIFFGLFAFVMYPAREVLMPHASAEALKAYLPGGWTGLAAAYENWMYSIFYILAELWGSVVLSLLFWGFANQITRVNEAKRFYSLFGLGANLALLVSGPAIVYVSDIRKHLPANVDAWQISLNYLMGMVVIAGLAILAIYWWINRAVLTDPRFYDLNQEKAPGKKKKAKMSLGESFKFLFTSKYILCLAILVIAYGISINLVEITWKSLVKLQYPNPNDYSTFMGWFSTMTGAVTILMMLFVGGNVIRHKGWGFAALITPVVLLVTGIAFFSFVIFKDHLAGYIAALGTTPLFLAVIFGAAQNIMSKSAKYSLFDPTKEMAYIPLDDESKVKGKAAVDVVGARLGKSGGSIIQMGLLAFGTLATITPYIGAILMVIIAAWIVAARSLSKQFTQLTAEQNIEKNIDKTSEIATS
The data set can be described thus: [α[…]]ADP uptake into proteoliposomes, anion exchange separation. Format: biochemical. The settings on record: apparent; ADP import in homo-exchange with 10 mM luminal ADP; pH 7.5; 30 °C; labelled compound.

Substrate in the data set “purified protein”: Nc1ncnc2c1ncn2[C@@H]1O[C@H](COP(=O)(O)OP(=O)(O)OP(=O)(O)O)[C@@H](O)[C@H]1O
As to the kind of experiment: purified protein. Type of data set: biochemical, Candidatus Protochlamydia amoebophila. The settings on record: apparent, ATP import in exchange with 10 mM luminal ADP, pH 7.5, 30 °C, labelled compound.

Usually Km stands for the substrate concentration at which the rate is half of its maximum.

Take `Nc1ncnc2c1ncn2[C@@H]1O[C@H](COP(=O)(O)OP(=O)(O)O)[C@@H](O)[C@H]1O` [ADP]: the “K M” value on PamNTT1 is “Approximately equivalent K M values were estimated for the ADPim/ADPex and ATPim/ATPex homo-exchange mode”.

B1: PamNTT1 (Candidatus Protochlamydia amoebophila UWE25) (protein)
chain: MSQDAKQDFGKWRAFFWPVHGYELKKLLPMFFMFFFISFNYTILRDTKDTLIVTSAGAEAIPFLKSFGVVPAAILFMIIYAKLSNTLSRENLFYVTLLPFIIFFGLFAFVMYPAREVLMPHASAEALKAYLPGGWTGLAAAYENWMYSIFYILAELWGSVVLSLLFWGFANQITRVNEAKRFYSLFGLGANLALLVSGPAIVYVSDIRKHLPANVDAWQISLNYLMGMVVIAGLAILAIYWWINRAVLTDPRFYDLNQEKAPGKKKKAKMSLGESFKFLFTSKYILCLAILVIAYGISINLVEITWKSLVKLQYPNPNDYSTFMGWFSTMTGAVTILMMLFVGGNVIRHKGWGFAALITPVVLLVTGIAFFSFVIFKDHLAGYIAALGTTPLFLAVIFGAAQNIMSKSAKYSLFDPTKEMAYIPLDDESKVKGKAAVDVVGARLGKSGGSIIQMGLLAFGTLATITPYIGAILMVIIAAWIVAARSLSKQFTQLTAEQNIEKNIDKTSEIATS
notes: full-length, N-terminal His tag (pET16b)
Consider B1, for which the Michaelis-Menten constant (Km) in “purified protein” amounted to 17 µM.

Source of the values: article PMC1951785, “Enlightening Energy Parasitism by Analysis of an ATP/ADP Transporter from Chlamydiae” (PLoS Biology, 2007).
